Experimental data: patent US11382956B2, “Amylin analogues” (Zealand Pharma A/S, priority 2016, dated 2022)
Numbered stars: 1 amine (or outer) side, 2 acyl side, 3 side chain; on linkers, the order of the positions; unused ones are H or OH. Bridge positions count the residues as written; N and C are the ends. Square brackets hold non-standard residues; d marks the D form. Peptide text beside a SMILES is read from it. * marks the point of attachment. C20 diacid = O=C(O)CCCCCCCCCCCCCCCCCCC(=O)*; γGlu = O=C(O)[C@H](CCC(=O)[*:2])N[*:1]; Hyp = O=C(O)[C@@H]1C[C@@H](O)CN1; NMeI = CC[C@H](C)[C@H](NC)C(=O)O; Aad = N[C@@H](CCCC(=O)O)C(=O)O; Orn = NCCC[C@H](N)C(=O)O; Sar = CNCC(=O)O

How the values were obtained:
[1] = target: T1, recombinant human calcitonin receptor (hCT-R) (Homo sapiens, UniProt P30988); assay: hCT-R cAMP assay (AlphaScreen) in 1321N1 cells; format: cell-based; conditions: cAMP formation, 45 min stimulation
T1 construct: host or cells: human astrocytoma cell line 1321N1
T1 sequence (P30988 25-474): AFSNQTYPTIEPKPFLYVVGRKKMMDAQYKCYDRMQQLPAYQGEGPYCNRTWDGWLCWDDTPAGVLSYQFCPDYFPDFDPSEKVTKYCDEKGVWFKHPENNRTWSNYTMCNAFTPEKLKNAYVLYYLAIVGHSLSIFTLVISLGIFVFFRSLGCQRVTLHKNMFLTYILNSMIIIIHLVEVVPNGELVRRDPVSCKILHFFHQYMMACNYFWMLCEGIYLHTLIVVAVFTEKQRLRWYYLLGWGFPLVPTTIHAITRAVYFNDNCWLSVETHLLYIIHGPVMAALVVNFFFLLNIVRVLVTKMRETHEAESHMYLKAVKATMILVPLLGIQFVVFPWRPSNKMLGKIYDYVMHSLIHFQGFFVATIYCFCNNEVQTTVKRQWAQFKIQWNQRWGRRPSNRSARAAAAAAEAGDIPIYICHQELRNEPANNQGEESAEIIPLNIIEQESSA
From the text: (§1) For the assessment of the in vitro activity of test peptides, cell lines expressing recombinant human calcitonin receptor (hCT-R) or recombinant human amylin 3 receptor (hAMYR3) in the background of the human astrocytoma cell line 1321N1 were purchased from DiscoveRx Corporation (Cat. No. 95-016106 and 95-0166C6). The hAMYR3 is a hetero-oligomer of the calcitonin receptor (Isoform 2; Gene ID 799) and RAMPS (Gene ID 10268) that forms when both genes are expressed in the same cell. The hCT-R cell line expresses only the recombinant human calcitonin receptor gene (Isoform 2; Gene ID 799). Upon activation of hCT-R or hAMYR3 by the test peptides the formation of cAMP is induced and was measured using the AlphaScreen® cAMP Assay kit from Perkin-Elmer (Cat. No. 6760635R).
(§2) Briefly, 1321N1 cells expressing hCT-R or hAMYR3 were seeded in 384-well microtiter plates (Falcon Optilux White, Cat.-No. 10448642) at 5,000 cells in […] growth medium per well (AssayComplete 1321N1 Cell Culture Kit, DiscoveRx Corp.), and incubated for 24 h at 37° C., 5% CO2. On the day of analysis growth medium was removed and the cells were stimulated by adding 10 μL of stimulation buffer (10 […], 0.1% BSA) containing increasing concentrations of test peptides, and incubation for 45 min at room temperature. The stimulation was stopped by adding 5.6 μL/well donor bead detection mix (5 mM Hepes pH7.4, 0.5% TWEEN 20, 0.1% BSA, 0.05 mg/mL donor beads, 62.5 nM biotinylated cAMP) and 4.5 μL/well acceptor bead solution (5 mM Hepes pH7.4, 0.5% TWEEN 20, 0.1% BSA, 0.05 mg/mL acceptor beads). After thorough mixing the plates were incubated in the dark for 1 h at room temperature and the cAMP content of the resulting cell lysates was estimated according to the AlphaScreen® cAMP Assay manufacturer's instructions. EC50 values were estimated by computer-aided curve fitting of results of at least 7 different compound concentrations.

[2] = target: T2, recombinant human amylin 3 receptor (hAMYR3) (Homo sapiens, UniProt O60896+P30988); assay: hAMYR3 cAMP assay (AlphaScreen) in 1321N1 cells; format: cell-based; conditions: cAMP formation, 45 min stimulation
T2 construct: host or cells: human astrocytoma cell line 1321N1
T2 sequence (P30988 25-474): T1 sequence (P30988 25-474)
T2 sequence (O60896 24-148 partner): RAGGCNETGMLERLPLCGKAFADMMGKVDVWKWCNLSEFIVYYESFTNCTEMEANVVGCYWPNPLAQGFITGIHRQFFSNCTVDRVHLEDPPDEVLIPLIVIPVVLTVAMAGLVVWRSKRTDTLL
From the text: as §1, §2

Row | Compound | EC50 [1] [nM] | EC50 [2] [nM]
1 | CC[C@H](C)[C@@H](C(=O)N[C@@H](CC(C)C)C(=O)N[C@@H](CO)C(=O)N[C@@H](CO)C(=O)N[C@H](C(=O)N[C@@H](CCC(=O)O)C(=O)N[C@H](C(=O)NCC(=O)N[C@@H](CO)C(=O)N[C@@H](CC(N)=O)C(=O)N[C@H](C(=O)N1C[C@H](O)C[C@H]1C(N)=O)[C@@H](C)O)C(C)C)[C@@H](C)O)N(C)C(=O)[C@H](C)NC(=O)CN(C)C(=O)[C@H](Cc1ccccc1)NC(=O)[C@@H](NC(=O)[C@@H](NC(=O)[C@H](CCCNC(=N)N)NC(=O)[C@H](CCC(N)=O)NC(=O)[C@H](CC(C)C)NC(=O)[C@H](Cc1ccccc1)NC(=O)[C@H](CCCC(=O)O)NC(=O)[C@H](C)NC(=O)[C@H](CC(C)C)NC(=O)[C@H](CCCNC(=N)N)NC(=O)[C@H](CCC(=O)O)NC(=O)[C@@H](NC(=O)[C@H](C)NC(=O)[C@@H]1CCCNC(=O)C[C@H](NC(=O)[C@H](CCCNC(=N)N)NC(=O)CC[C@H](NC(=O)CCCCCCCCCCCCCCCCCCC(=O)O)C(=O)O)C(=O)NCC(=O)N[C@@H]([C@@H](C)O)C(=O)N[C@@H](C)C(=O)N[C@@H]([C@@H](C)O)C(=O)N1)[C@@H](C)O)[C@@H](C)O)[C@@H](C)O [Compound 23, [19CD]-isoGlu-RD()GTAT-Orn()-ATERLA-Aad-FLQRTTF-Gly(Me)-A-Ile(Me)-LSSTEVGSNT-Hyp-NH2] ({C20 diacid-γGlu}-RDGTAT[Orn]ATERLA[Aad]FLQRTTF[Sar]A[NMeI]LSSTEVGSNT[Hyp]-NH2; lactam 2-7) | 1.93 | 0.706
2 | CC[C@H](C)[C@@H](C(=O)N1CCC[C@H]1C(=O)N[C@@H](CO)C(=O)N[C@@H](CO)C(=O)N[C@H](C(=O)N[C@@H](CCC(=O)O)C(=O)N[C@H](C(=O)NCC(=O)N[C@@H](CO)C(=O)N[C@@H](CC(N)=O)C(=O)N[C@H](C(=O)N1C[C@H](O)C[C@H]1C(N)=O)[C@@H](C)O)C(C)C)[C@@H](C)O)N(C)C(=O)[C@H](C)NC(=O)CN(C)C(=O)[C@H](Cc1ccccc1)NC(=O)[C@@H](NC(=O)[C@@H](NC(=O)[C@H](CCCNC(=N)N)NC(=O)[C@H](CCC(N)=O)NC(=O)[C@H](CC(C)C)NC(=O)[C@H](Cc1ccccc1)NC(=O)[C@H](CCCC(=O)O)NC(=O)[C@H](C)NC(=O)[C@H](CC(C)C)NC(=O)[C@H](CCCNC(=N)N)NC(=O)[C@H](CCC(=O)O)NC(=O)[C@@H](NC(=O)[C@H](C)NC(=O)[C@@H]1CCCNC(=O)C[C@H](NC(=O)[C@H](CCCNC(=N)N)NC(=O)CC[C@H](NC(=O)CCCCCCCCCCCCCCCCCCC(=O)O)C(=O)O)C(=O)NCC(=O)N[C@@H]([C@@H](C)O)C(=O)N[C@@H](C)C(=O)N[C@@H]([C@@H](C)O)C(=O)N1)[C@@H](C)O)[C@@H](C)O)[C@@H](C)O [Compound 24, [19CD]-isoGlu-RD()GTAT-Orn()-ATERLA-Aad-FLQRTTF-Gly(Me)-A-Ile(Me)-PSSTEVGSNT-Hyp-NH2] ({C20 diacid-γGlu}-RDGTAT[Orn]ATERLA[Aad]FLQRTTF[Sar]A[NMeI]PSSTEVGSNT[Hyp]-NH2; lactam 2-7) | 0.038 | 0.013
3 | CC[C@H](C)[C@@H](C(=O)N[C@@H](CC(C)C)C(=O)N[C@@H](CO)C(=O)N[C@@H](CO)C(=O)N[C@H](C(=O)N[C@@H](CCC(=O)O)C(=O)N[C@H](C(=O)NCC(=O)N[C@@H](CO)C(=O)N[C@@H](CC(N)=O)C(=O)N[C@H](C(=O)N1C[C@H](O)C[C@H]1C(N)=O)[C@@H](C)O)C(C)C)[C@@H](C)O)N(C)C(=O)[C@H](C)NC(=O)CN(C)C(=O)[C@H](Cc1ccccc1)NC(=O)[C@H](C)NC(=O)[C@H](C)NC(=O)[C@H](CCCNC(=N)N)NC(=O)[C@H](CCC(N)=O)NC(=O)[C@H](CC(C)C)NC(=O)[C@H](Cc1ccccc1)NC(=O)[C@H](CCCC(=O)O)NC(=O)[C@H](C)NC(=O)[C@H](CC(C)C)NC(=O)[C@H](CCCNC(=N)N)NC(=O)[C@H](CCC(=O)O)NC(=O)[C@@H](NC(=O)[C@H](C)NC(=O)[C@@H]1CCCNC(=O)C[C@H](NC(=O)[C@H](CCCNC(=N)N)NC(=O)CC[C@H](NC(=O)CCCCCCCCCCCCCCCCCCC(=O)O)C(=O)O)C(=O)NCC(=O)N[C@@H]([C@@H](C)O)C(=O)N[C@@H](C)C(=O)N[C@@H]([C@@H](C)O)C(=O)N1)[C@@H](C)O [Compound 26, [19CD]-isoGlu-RD()GTAT-Orn()-ATERLA-Aad-FLQRAAF-Gly(Me)-A-Ile(Me)-LSSTEVGSNT-Hyp-NH2] ({C20 diacid-γGlu}-RDGTAT[Orn]ATERLA[Aad]FLQRAAF[Sar]A[NMeI]LSSTEVGSNT[Hyp]-NH2; lactam 2-7) | 0.769 | 0.12
4 | CC[C@H](C)[C@@H](C(=O)N[C@@H](CC(C)C)C(=O)N[C@@H](CO)C(=O)N[C@@H](CO)C(=O)N[C@H](C(=O)N[C@@H](CCC(=O)O)C(=O)N[C@H](C(=O)NCC(=O)N[C@@H](CO)C(=O)N[C@@H](CC(N)=O)C(=O)N[C@H](C(=O)N1C[C@H](O)C[C@H]1C(N)=O)[C@@H](C)O)C(C)C)[C@@H](C)O)N(C)C(=O)[C@H](C)NC(=O)CN(C)C(=O)[C@H](Cc1ccccc1)NC(=O)[C@@H](NC(=O)CNC(=O)[C@H](CCCNC(=N)N)NC(=O)[C@H](CCC(N)=O)NC(=O)[C@H](CC(C)C)NC(=O)[C@H](Cc1ccccc1)NC(=O)[C@H](CCCC(=O)O)NC(=O)[C@H](C)NC(=O)[C@H](CC(C)C)NC(=O)[C@H](CCCNC(=N)N)NC(=O)[C@H](CCC(=O)O)NC(=O)[C@@H](NC(=O)[C@H](C)NC(=O)[C@@H]1CCCNC(=O)C[C@H](NC(=O)[C@H](CCCNC(=N)N)NC(=O)CC[C@H](NC(=O)CCCCCCCCCCCCCCCCCCC(=O)O)C(=O)O)C(=O)N[C@@H](CCC(N)=O)C(=O)N[C@@H]([C@@H](C)O)C(=O)N[C@@H](C)C(=O)N[C@@H]([C@@H](C)O)C(=O)N1)[C@@H](C)O)[C@@H](C)O [Compound 28, [19CD]-isoGlu-RD()QTAT-Orn()-ATERLA-Aad-FLQRGTF-Gly(Me)-A-Ile(Me)-LSSTEVGSNT-Hyp-NH2] ({C20 diacid-γGlu}-RDQTAT[Orn]ATERLA[Aad]FLQRGTF[Sar]A[NMeI]LSSTEVGSNT[Hyp]-NH2; lactam 2-7) | 1.23 | 0.268
5 | CC[C@H](C)[C@@H](C(=O)N[C@@H](CC(C)C)C(=O)N[C@@H](CO)C(=O)N[C@@H](CO)C(=O)N[C@H](C(=O)N[C@@H](CCC(=O)O)C(=O)N[C@H](C(=O)NCC(=O)N[C@@H](CO)C(=O)N[C@@H](CC(N)=O)C(=O)N[C@H](C(=O)N1C[C@H](O)C[C@H]1C(N)=O)[C@@H](C)O)C(C)C)[C@@H](C)O)N(C)C(=O)[C@H](C)NC(=O)CN(C)C(=O)[C@H](Cc1ccccc1)NC(=O)[C@H](CO)NC(=O)[C@H](CO)NC(=O)[C@H](CCCNC(=N)N)NC(=O)[C@H](CCC(N)=O)NC(=O)[C@H](CC(C)C)NC(=O)[C@H](Cc1ccccc1)NC(=O)[C@H](CCCC(=O)O)NC(=O)[C@H](C)NC(=O)[C@H](CC(C)C)NC(=O)[C@H](CCCNC(=N)N)NC(=O)[C@H](CCC(=O)O)NC(=O)[C@@H](NC(=O)[C@H](C)NC(=O)[C@@H]1CCCCNC(=O)C[C@H](NC(=O)[C@H](CCCNC(=N)N)NC(=O)CC[C@H](NC(=O)CCCCCCCCCCCCCCCCCCC(=O)O)C(=O)O)C(=O)N2CCC[C@H]2C(=O)N[C@@H]([C@@H](C)O)C(=O)N[C@@H](C)C(=O)N[C@@H]([C@@H](C)O)C(=O)N1)[C@@H](C)O [Compound 29, [19CD]-isoGlu-RD()PTATK()ATERLA-Aad-FLQRSSF-Gly(Me)-A-Ile(Me)-LSSTEVGSNT-Hyp-NH2] ({C20 diacid-γGlu}-RDPTATKATERLA[Aad]FLQRSSF[Sar]A[NMeI]LSSTEVGSNT[Hyp]-NH2; lactam 2-7) | 1.07 | 0.312
